Consider four molecules from US20240351986A1, “UREA COMPOUND CONTAINING 2-HETEROAROMATIC RING SUBSTITUTION, PREPARATION METHOD THEREFOR AND USE THEREOF” (SHANGHAI INSTITUTE OF MATERIA MEDICA, CHINESE ACADEMY OF …, priority 2021, published 2024).

Molecules are shown by their SMILES. Read-outs that look alike come from different tables or passages of the source. A value given as a limit tells only on which side of the number the result lay.

For data set [1], the system named is WSU-DLCL2 cells. Description: Tumor cell proliferation inhibition in vitro (CCK-8). The settings on record: Homo sapiens, WSUDLCL2, 72 hours. It is filed as cell-based. The protocol:
Experimental method: WSU-DLCL2 cells in good condition were seeded in a 96-well plate at 20,000/well. The test compound was gradient diluted with PBS and then added to the wells. After incubating with the cells for 72 hours, 10 μl of CCK-8 reagent was added to each well. After further incubation, the absorbance was measured at 460 nm and the 4-parameter curve fitting of Softmax Pro software was used to calculate the proliferation inhibition IC50 of the test compound.

Data set [2] concerns U2932. Description: Tumor cell proliferation inhibition in vitro. It is filed as cell-based. To be noted: Homo sapiens.
Data set [3] concerns Pfeiffer. Description: Tumor cell proliferation inhibition in vitro. It is filed as cell-based. The settings on record: for IC50: Homo sapiens, Pfeiffer, proliferation.
Data set [4] has as its system Will2. Description: Tumor cell proliferation inhibition in vitro. It is filed as cell-based.
The subject of data set [5] is 422. Description: Tumor cell proliferation inhibition in vitro. It is filed as cell-based. To be noted: for IC50: proliferation.
The nature of data set [6]: PK parameters in mice after iv and po administration (LC-MS/MS of plasma). The settings on record: for AUC(0-t) / half-life / AUC(0-inf) / MRT inf / Cmax / Tmax: mouse, plasma; for AUC(0-inf): read-out: AUCINF_obs; for MRT inf: read-out: MRTINF_obs; for F: oral bioavailability. It is filed as in vivo. The procedure: The relevant pharmacokinetic parameters were calculated to examine the oral bioavailability and pharmacokinetic properties of the compound in mice.

For data set [7], the target named is T1, Recombinant human CDK9/cyclin T1 (Homo sapiens, UniProt P50750).
T1 construct: purchased Carna bioscience 04-110
Description: CDK9 enzyme inhibitory activity (ADP-Glo kinase assay). It is filed as biochemical. To be noted: for inhibition at 0.01 µM / inhibition at 0.1 µM: CDK9 enzyme activity, average of two independent repeats; for inhibition at 0.01 µM: compound 10 nM, read-out: Inhibition rate at different concentrations (%) 10 nM; for inhibition at 0.1 µM: compound 100 nM, read-out: Inhibition rate at different concentrations (%) 100 nM; for IC50: Table 2, read-out: CDK9/CycT1 IC50. In general terms: ADP-Glo first removes unused ATP, then detects ADP through luciferase.

Data set [8] deals with CDK1/cyclin B (Homo sapiens, UniProt P06493). Description: CDK1 enzyme activity inhibition. It is filed as biochemical. To be noted: for inhibition at 0.01 µM: compound 10 nM, read-out: CDK1/Cyc B inhibition rate % 10 nM; for inhibition at 0.1 µM: compound 100 nM, read-out: CDK1/Cyc B inhibition rate % 100 nM. The procedure:
(§1) CDK1,4,6,7 enzyme (CDK1/cyclin B, CDK4/cyclin D1, CDK6/cyclin D1, CDK7/cyclin H) activity was measured using a 5 μL enzyme system (50 mM HEPES, 10 mM MgCl2, 1 mM EGTA, 2 mM DTT and 0.0100 Tween 20, appropriate enzyme) either. A mixture of 2.5 μL of compound, 2.5 µL of substrate and ATP (final concentration of substrate 50 nM, final concentration of ATP 200 μM) was incubated at room temperature in the dark for 60 minutes. Then 5 μL EDTA stop solution diluted in 1× detection buffer (final concentration 6 mM) was added to each well, then an antibody diluted in 1× detection buffer (final concentration 2 nM) was added to incubate for 1 hour at room temperature in the dark, and then the corresponding enzyme activity inhibition rate or IC50 was calculated after measurement.

For data set [9], the target named is CDK4/cyclin D1 (Homo sapiens, UniProt P11802). Description: CDK4 enzyme activity inhibition. It is filed as biochemical. To be noted: for inhibition at 0.01 µM: compound 10 nM, read-out: CDK4/Cyc D1 inhibition rate % 10 nM; for inhibition at 0.1 µM: compound 100 nM, read-out: CDK4/Cyc D1 inhibition rate % 100 nM. The protocol:
as §1

Data set [10] addresses CDK6/cyclin D1 (Homo sapiens, UniProt Q00534). Description: CDK6 enzyme activity inhibition. The settings on record: for inhibition at 0.01 µM: compound 10 nM, read-out: CDK6/Cyc D1 inhibition rate % 10 nM; for inhibition at 0.1 µM: compound 100 nM, read-out: CDK6/Cyc D1 inhibition rate % 100 nM. It is filed as biochemical. The protocol: as §1
The target in data set [11] is CDK7/cyclin H (Homo sapiens, UniProt P50613). Description: CDK7 enzyme activity inhibition. It is filed as biochemical. The settings on record: for inhibition at 0.01 µM: compound 10 nM, read-out: CDK7/Cyc H inhibition rate % 10 nM; for inhibition at 0.1 µM: compound 100 nM, read-out: CDK7/Cyc H inhibition rate % 100 nM. The protocol: as §1
Data set [12] relates to phosphorylation of Pol II S2 position. Description: Western Blot, CDK9 signaling pathway in WSU-DLCL2 cells: Pol II S2 phosphorylation. It is filed as cell-based. The settings on record: 24 hours. The procedure:
(§2) Western Blot was used to detect the effect of compounds on the activation of CDK9 signaling pathway in WSU-DLCL2 cells.
(§3) Experimental method: An appropriate amount of WSU-DLCL2 cells were seeded in a 6-well plate. After 24 hours of exposure to the test compound, the cells were collected by centrifugation. A corresponding amount of 1× loading buffer (50 mM Tris-HCl (pH6.8), 2% SDS, 0.1% bromophenol blue, 10% glycerol) was added, the sample was boiled at 100° C. after lysis. The same volume of sample was taken. After SDS-PAGE electrophoresis, the protein on the gel was transferred to a nitrocellulose membrane. The corresponding band was cut according to the size of the protein and blocked TBST containing 5% skimmed milk powder (20 mM Tris-HCl, 150 mM NaCl, 0.1% Tween20, adjust pH to 7.4) for 1 hour, and primary antibody was incubated overnight at 4° C. TBST was used to elute excess primary antibody for 10 minutes each time for three times, the secondary antibody was incubated at room temperature for 1 hour, and then TBST was used to elute excess secondary antibody for 10 minutes each time for three times. Finally, the strips were colored and photographed using a Bio-Rad colorimeter.
For orientation: A western blot detects proteins with antibodies after separation by electrophoresis.

Data set [13] has as its system Mcl-1. Description: Western Blot, CDK9 signaling pathway in WSU-DLCL2 cells: Mcl-1 expression. The settings on record: 24 hours. It is filed as cell-based. The procedure:
as §2, §3

Data set [14] is described as follows: Identification of metabolites in mouse plasma. It is filed as in vivo.
Where [15] appears, read: original form and metabolites of compound 47 in mouse plasma, iv.

Chain of CDK7/cyclin H (P50613 whole entry, species assumed): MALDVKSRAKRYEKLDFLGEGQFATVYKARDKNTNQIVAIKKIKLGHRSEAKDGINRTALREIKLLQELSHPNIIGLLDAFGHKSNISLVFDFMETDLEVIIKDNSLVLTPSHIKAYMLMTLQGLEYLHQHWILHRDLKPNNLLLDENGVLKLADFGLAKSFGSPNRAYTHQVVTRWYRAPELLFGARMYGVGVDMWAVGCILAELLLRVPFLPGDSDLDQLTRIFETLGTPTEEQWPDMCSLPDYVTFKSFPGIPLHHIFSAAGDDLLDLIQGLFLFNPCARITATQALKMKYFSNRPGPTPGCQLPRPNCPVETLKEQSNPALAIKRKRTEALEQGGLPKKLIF
Chain of CDK7/cyclin H (P51946 whole entry partner, species assumed): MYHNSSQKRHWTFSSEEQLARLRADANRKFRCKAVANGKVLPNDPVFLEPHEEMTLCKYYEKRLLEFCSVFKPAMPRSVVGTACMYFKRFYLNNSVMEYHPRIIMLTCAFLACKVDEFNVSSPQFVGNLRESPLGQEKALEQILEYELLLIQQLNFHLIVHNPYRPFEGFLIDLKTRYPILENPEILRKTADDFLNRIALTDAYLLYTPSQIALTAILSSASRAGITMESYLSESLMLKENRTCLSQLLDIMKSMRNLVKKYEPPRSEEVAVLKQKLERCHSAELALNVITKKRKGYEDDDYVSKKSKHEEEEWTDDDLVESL
Chain of CDK6/cyclin D1 (Q00534 whole entry, species assumed): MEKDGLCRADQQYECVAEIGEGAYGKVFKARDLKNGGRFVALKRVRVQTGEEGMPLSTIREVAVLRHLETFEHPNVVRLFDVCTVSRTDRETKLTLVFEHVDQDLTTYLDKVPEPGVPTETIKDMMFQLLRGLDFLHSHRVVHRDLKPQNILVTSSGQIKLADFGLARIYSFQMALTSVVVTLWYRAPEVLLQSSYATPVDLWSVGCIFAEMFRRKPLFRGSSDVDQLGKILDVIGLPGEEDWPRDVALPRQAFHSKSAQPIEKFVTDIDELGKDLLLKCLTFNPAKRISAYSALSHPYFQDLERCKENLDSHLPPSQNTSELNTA
Chain of CDK6/cyclin D1 (P24385 whole entry partner, species assumed): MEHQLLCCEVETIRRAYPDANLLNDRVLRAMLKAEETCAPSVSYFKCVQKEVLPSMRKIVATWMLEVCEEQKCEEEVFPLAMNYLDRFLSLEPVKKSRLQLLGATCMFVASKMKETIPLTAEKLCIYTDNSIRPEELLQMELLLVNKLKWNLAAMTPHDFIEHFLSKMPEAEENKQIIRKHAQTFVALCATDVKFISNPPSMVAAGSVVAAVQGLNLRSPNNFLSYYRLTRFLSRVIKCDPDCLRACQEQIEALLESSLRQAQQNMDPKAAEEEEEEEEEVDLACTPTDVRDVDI
Chain of CDK1/cyclin B (P06493 whole entry, species assumed): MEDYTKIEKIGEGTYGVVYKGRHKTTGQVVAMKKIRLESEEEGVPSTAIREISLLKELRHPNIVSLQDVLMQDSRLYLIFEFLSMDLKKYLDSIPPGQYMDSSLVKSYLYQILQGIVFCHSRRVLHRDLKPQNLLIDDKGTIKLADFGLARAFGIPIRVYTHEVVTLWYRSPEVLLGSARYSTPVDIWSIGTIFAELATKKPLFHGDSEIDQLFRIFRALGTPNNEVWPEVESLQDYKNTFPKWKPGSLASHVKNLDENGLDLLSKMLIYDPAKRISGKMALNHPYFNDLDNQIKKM
Chain of CDK1/cyclin B (P14635 whole entry partner, species assumed): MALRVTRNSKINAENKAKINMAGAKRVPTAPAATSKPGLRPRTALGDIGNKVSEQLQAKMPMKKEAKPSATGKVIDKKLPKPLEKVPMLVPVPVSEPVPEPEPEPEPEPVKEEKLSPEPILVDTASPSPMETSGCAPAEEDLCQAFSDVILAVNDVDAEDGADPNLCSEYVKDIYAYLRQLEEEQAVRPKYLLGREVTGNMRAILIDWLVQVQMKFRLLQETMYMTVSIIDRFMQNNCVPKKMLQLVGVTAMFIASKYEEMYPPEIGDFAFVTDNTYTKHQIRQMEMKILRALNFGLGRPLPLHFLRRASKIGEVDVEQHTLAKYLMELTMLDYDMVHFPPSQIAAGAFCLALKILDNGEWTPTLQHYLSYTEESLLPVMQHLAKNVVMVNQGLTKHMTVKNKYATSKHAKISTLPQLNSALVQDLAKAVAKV
T1 sequence (P50750 whole entry): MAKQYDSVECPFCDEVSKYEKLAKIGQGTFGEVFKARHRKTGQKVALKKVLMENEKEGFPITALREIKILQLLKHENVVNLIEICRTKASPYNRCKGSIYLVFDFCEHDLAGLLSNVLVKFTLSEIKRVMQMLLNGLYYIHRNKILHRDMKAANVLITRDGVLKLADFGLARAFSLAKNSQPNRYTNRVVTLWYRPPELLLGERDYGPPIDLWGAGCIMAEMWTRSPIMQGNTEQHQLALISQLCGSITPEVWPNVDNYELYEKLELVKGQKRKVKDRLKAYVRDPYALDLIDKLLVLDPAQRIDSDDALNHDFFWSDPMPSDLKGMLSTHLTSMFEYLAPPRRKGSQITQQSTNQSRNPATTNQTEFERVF
T1 sequence (O60563 whole entry partner): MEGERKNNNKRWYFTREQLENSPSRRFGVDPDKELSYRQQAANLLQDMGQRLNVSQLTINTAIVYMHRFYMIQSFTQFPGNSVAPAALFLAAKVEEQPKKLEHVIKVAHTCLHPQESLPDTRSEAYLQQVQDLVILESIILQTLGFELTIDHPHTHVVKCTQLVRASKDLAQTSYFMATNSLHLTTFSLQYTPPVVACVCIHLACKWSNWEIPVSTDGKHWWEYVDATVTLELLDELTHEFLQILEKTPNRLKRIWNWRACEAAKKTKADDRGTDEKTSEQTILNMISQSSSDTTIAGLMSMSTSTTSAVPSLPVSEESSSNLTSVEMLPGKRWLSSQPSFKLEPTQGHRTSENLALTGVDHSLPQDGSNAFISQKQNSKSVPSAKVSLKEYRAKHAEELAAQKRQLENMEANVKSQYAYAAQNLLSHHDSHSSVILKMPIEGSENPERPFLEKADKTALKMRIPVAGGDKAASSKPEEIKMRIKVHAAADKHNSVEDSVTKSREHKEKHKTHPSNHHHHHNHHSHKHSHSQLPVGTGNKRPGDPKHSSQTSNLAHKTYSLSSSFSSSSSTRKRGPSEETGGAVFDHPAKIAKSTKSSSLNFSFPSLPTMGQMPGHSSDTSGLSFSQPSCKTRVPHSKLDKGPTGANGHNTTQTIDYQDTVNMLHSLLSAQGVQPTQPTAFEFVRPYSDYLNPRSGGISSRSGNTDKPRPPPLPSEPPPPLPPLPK
Chain of CDK4/cyclin D1 (P11802 whole entry, species assumed): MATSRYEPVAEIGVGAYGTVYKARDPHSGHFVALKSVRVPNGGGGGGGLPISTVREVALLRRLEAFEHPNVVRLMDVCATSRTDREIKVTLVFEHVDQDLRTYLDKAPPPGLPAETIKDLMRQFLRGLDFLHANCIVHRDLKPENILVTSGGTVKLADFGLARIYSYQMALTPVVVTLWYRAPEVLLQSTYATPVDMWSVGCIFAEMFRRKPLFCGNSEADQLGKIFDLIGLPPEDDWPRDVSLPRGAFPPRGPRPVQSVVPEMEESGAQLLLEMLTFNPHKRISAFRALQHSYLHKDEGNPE
Chain of CDK4/cyclin D1 (P24385 whole entry partner, species assumed): as the sequence (P24385 whole entry partner, species assumed) above

One may read the AUC(0-t) as the area under the concentration-time curve up to a stated or last time point. Read a high AUC(0-t) as high exposure. A word on the half-life: it is the time needed for the level to fall by half in the phase considered. Broadly, the Cmax is the maximum level reached in the sampled fluid or tissue. In general, Tmax refers to the time at which the peak concentration occurs. Consider `CC(=O)N[C@@H]1CCC[C@H](C(=O)Nc2cc(-c3cnn4c3CC(C)(C)C4)c(Cl)cn2)C1` [AZD4573, reference compound], for which the IC50 in data set [1] was less than 3 nM; in [2], 2.32 nM; in [3] it was 2.43 nM; in data set [4] it was 5.75 nM; in data set [5] it was 1.81 nM. The same molecule showed a CL_obs in data set [6] (i.v.) of 119 mL/min/kg. For the same molecule, the Vss_obs in data set [6] (i.v.) was found to be 0.82 L/kg. Moreover, the AUC(0-t) is 416 ng·h/mL in [6] (iv, 3 mg/kg) and 73.2 ng·h/mL in [6] (po). For the same molecule, the half-life in data set [6] (iv, 3 mg/kg) was 0.11 h; in data set [6] (po, 10 mg/kg) it was 0.27 h. Further, the AUC(0-inf) in data set [6] (iv, 3 mg/kg, i.v.) turned out to be 419 ng·h/mL; in data set [6] (po) it was 73.6 ng·h/mL. Moreover, the MRT inf in [6] (iv, 3 mg/kg, i.v.) is 0.11 h; in data set [6] (po), 0.42 h. The molecule also had a Cmax in data set [6] (po) of 219 ng/mL. Moreover, in data set [6] (po), the Tmax is 0.25 h. For the same molecule, the F in data set [6] stood at 5.28%.

As for `COCCN[C@H]1CC[C@H](NC(=O)Nc2cc(-c3cnn4c3CC(C)(C)C4)c(Cl)cn2)CC1` [Example 46, 1-(5-chloro-4-(5,5-dimethyl-5,6-dihydro-4H-pyrrolo[1,2-b]pyrazol-3-yl)pyridin-2-yl)-3-((1r,4r)-4-((2-methoxy)amino)cyclohexyl)urea], in data set [7], the inhibition at 0.01 µM is 55%, the inhibition at 0.1 µM worked out at 94% and the IC50 was 12 nM. In data set [8], the inhibition at 0.01 µM was -5.1% and the inhibition at 0.1 µM came out at 11.6%. In [9], the inhibition at 0.01 µM is 11.1% and the inhibition at 0.1 µM turned out to be 20.9%. Further, in data set [10], the inhibition at 0.01 µM worked out at 6.2% and the inhibition at 0.1 µM was determined as 21.6%. Besides, in [11], the inhibition at 0.01 µM is 24% and the inhibition at 0.1 µM amounted to 59%. In [6], the “plasma clearance rates compared with AZD4573” value is listed as “lower” and the F is 24.8%. In data set [6] (i.v.), this molecule showed a CL_obs of 68.6 mL/min/kg and a Vss_obs of 3.469 L/kg. Moreover, in data set [6] (iv, 3 mg/kg), the AUC(0-t) worked out at 728 ng·h/mL and the half-life was 2.09 h. In [6] (iv, 3 mg/kg, i.v.), the AUC(0-inf) stood at 729 ng·h/mL and the MRT inf was 0.84 h. In data set [6] (po), the AUC(0-t) came to 601 ng·h/mL, the Cmax is 382 ng/mL, the Tmax turned out to be 1 h and the AUC(0-inf) amounted to 602 ng·h/mL. Moreover, the MRT inf in data set [6] (po) was found to be 1.7 h. In data set [6] (po, 10 mg/kg), this molecule showed a half-life of 2.38 h.

On to `CC(=O)N[C@H]1CC[C@H](NC(=O)Nc2cc(-c3cnn4c3CC(C)(C)C4)c(Cl)cn2)CC1` [Example 47, N-((1r,4r)-4-(3-(5-chloro-4-(5,5-dimethyl-5,6-dihydro-4H-pyrrolo[1,2-b]pyrazol-3-yl)pyridin-2-yl)ureido)cyclohexyl)acetamide], for which the inhibition at 0.01 µM was 71% in [7]; 5% in data set [8]; 13.6% in [9]; 4.6% in data set [10]; 15% in [11]. The inhibition at 0.1 µM in data set [7] was 84%; in [8], 33.4%; in data set [9] it was 41.1%; in data set [10] it was 26.7%; in [11], 50%. In addition, the IC50 in data set [7] is 5.1 nM; in data set [1] it was less than 4.5 nM; in [2] it was 0.932 nM; in data set [3], 0.052 nM; in data set [4] it was 2.16 nM; in data set [5], 0.089 nM. In addition, the “growth inhibition potency relative to positive control compound AZD4573” value is on record as 46.67 times in data set [3] (Pfeiffer cells, IC50 ratio) and 20.33 times in data set [5] (422 cells, IC50 ratio). In addition, the “phosphorylation of Pol II S2 position” value in [12] (50 nM, vs control group) was “significantly down-regulated”; in data set [12] (100 nM), “basically completely inhibited”. Besides, the Mcl-1 expression entry in [13] (50 nM) is “significant decrease”; in [13] (100 nM), “almost completely blocked”. In addition, in data set [6], the “plasma clearance rates compared with AZD4573” value is listed as “lower”. This molecule also came in with a CL_obs in [6] (i.v.) of 102 mL/min/kg. This molecule displayed a Vss_obs in [6] (i.v.) of 14.318 L/kg. Also, the AUC(0-t) in [6] (iv, 3 mg/kg) amounted to 480 ng·h/mL; in data set [6] (po), 98.8 ng·h/mL. The half-life in [6] (iv, 3 mg/kg) was 3.84 h; in [6] (po, 10 mg/kg) it was 1.5 h. Also, the AUC(0-inf) in data set [6] (iv, 3 mg/kg, i.v.) worked out at 491 ng·h/mL; in [6] (po) it was 100 ng·h/mL. For the same molecule, the MRT inf was 2.34 h in [6] (iv, 3 mg/kg, i.v.) and 1.57 h in data set [6] (po). This molecule yielded a Cmax in data set [6] (po) of 58.2 ng/mL. The Tmax in [6] (po) came to 0.5 h. In addition, the F in data set [6] came to 6.18%. In addition, the “plasma stability compared with positive compound AZD4573” value in [14] (mouse plasma, from metabolite identification) is “higher plasma stability”.

For `CC(=O)N[C@H]1CC[C@H](NC(=O)Nc2cc(-c3cnn4c3CC(C)(C)C4)c(Cl)cn2)CC1` [Example M0], in data set [14] (setting [15]), the “Area (254 nm), value in parentheses, iv” value is on record as “(532)” and the “MS Area iv” value was 62967. In [14] (original form and metabolites of compound 47 in mouse plasma, po), the “MS Area po” value is given as 811.
